In US20230340011A1 (Asteroid Therapeutics, priority 2022, published 2023):

Molecular target: SREBP-2 (Homo sapiens (Human), UniProt Q12772)
Experiment: In vitro assay SREBP-2: PathHunter U2OS SREBP-2 Nuclear Translocation Cell Line, U18666A-stimulated
Format: cell-based
Settings: PathHunter U2OS SREBP-2 nuclear translocation cells, U18666A 10 μM, overnight (16 hours)

| Structure (SMILES) | IC50 [nM] |
| --- | --- |
| COC(=O)N1CCN(C(=O)CC[C@@H](C)[C@H]2CC[C@H]3[C@@H]4CC=C5C[C@](O)(C(F)(F)F)CC[C@]5(C)[C@H]4CC[C@]23C)CC1 [Example 419, Methyl 4-((R)-4-((3S,8S,9S,10R,13R,14S,17R)-3-hydroxy-10,13-dimethyl-3-(trifluoromethyl)-2,3,4,7,8,9,10,11,12,13,14,15,16,17-tetradecahydro-1H-cyclopenta[a]phenanthren-17-yl)pentanoyl)piperazine-1-carboxylate] | 1000 to 10000 |
| C[C@H](CCC(=O)N1CCC(N2CCOCC2=O)CC1)[C@H]1CC[C@H]2[C@@H]3CC=C4C[C@@H](O)CC[C@]4(C)[C@H]3CC[C@]12C [Example 525, 4-(1-((R)-4-((3S,8S,9S,10R,13R,14S,17R)-3-hydroxy-10,13-dimethyl-2,3,4,7,8,9,10,11,12,13,14,15,16,17-tetradecahydro-1H-cyclopenta [a]phenanthren-17-yl)pentanoyl)piperidin-4-yl)morpholin-3-one] | < 250 |
| C[C@H](OC(=O)N(C)C)[C@H]1CC[C@H]2[C@@H]3CC=C4C[C@@H](O)CC[C@]4(C)[C@H]3CC[C@]12C [Example 461, (1S)-1-[(1S,3aS,3bS,7S,9aR,9bS,11aS)-7-hydroxy-9a,11a-dimethyl-1H,2H,3H,3aH,3bH,4H,6H,7H,8H,9H,9aH,9bH,10H,11H,11aH-cyclopenta[a]phenanthren-1-yl]ethyl N,N-dimethylcarbamate] | 250 to 1000 |
| CNC(=O)c1ccnc(OC[C@@H](C)[C@H]2CC[C@H]3[C@@H]4CC=C5C[C@@H](O)CC[C@]5(C)[C@H]4CC[C@]23C)c1 [Example 450, 2-((S)-2-((3S,8S,9S,10R,13S,14S,17R)-3-hydroxy-10,13-dimethyl-2,3,4,7,8,9,10,11,12,13,14,15,16,17-tetradecahydro-1H-cyclopenta[a]phenanthren-17-yl)propoxy)-N-methylisonicotinamide] | < 250 |
| CNC(=O)NC[C@@H](C)[C@H]1CC[C@H]2[C@@H]3CC=C4C[C@@H](O)CC[C@]4(C)[C@H]3CC[C@]12C [Example 239, 1-((S)-2-((3S,8S,9S,10R,13S,14S,17R)-3-hydroxy-10,13-dimethyl-2,3,4,7,8,9,10,11,12,13,14,15,16,17-tetradecahydro-1H-cyclopenta[a]phenanthren-17-yl)propyl)-3-methylurea] | 250 to 1000 |
| C[C@H](Oc1cccnc1CO)[C@H]1CC[C@H]2[C@@H]3CC=C4C[C@@H](O)CC[C@]4(C)[C@H]3CC[C@]12C [Example 434, (3S,8S,9S,10R,13S,14S,17S)-17-((S)-1-((2-(hydroxymethyl)pyridin-3-yl)oxy)ethyl)-10,13-dim ethyl-2,3,4,7,8,9,10,11,12,13,14,15,16,17-tetradecahydro-1H-cyclopenta[a]phenanthren-3-ol] | 250 to 1000 |
| CCC1(O)CCN(C(=O)C[C@@H](C)[C@H]2CC[C@H]3[C@@H]4CC=C5C[C@@H](O)CC[C@]5(C)[C@H]4CC[C@]23C)CC1 [Example 592, (R)-1-(4-ethyl-4-hydroxypiperidin-1-yl)-3-((3S,8S,9S,10R,13R,14S,17R)-3-hydroxy-10,13-dimethyl-2,3,4,7,8,9,10,11,12,13,14,15,16,17-tetradecahydro-1H-cyclopenta[a]phenanthren-17-yl)butan-1-one] | < 250 |
| C[C@H](CCC(=O)N1CCC(O)(c2ccncc2)CC1)[C@H]1CC[C@H]2[C@@H]3CC=C4C[C@@H](O)CC[C@]4(C)[C@H]3CC[C@]12C [Example 344, (R)-4-((3S,8S,9S,10R,13R,14S,17R)-3-hydroxy-10,13-dimethyl-2,3,4,7,8,9,10,11,12,13,14,15,16,17-tetradecahydro-1H-cyclopenta[a]phenanthren-17-yl)-1-(4-hydroxy-4-(pyridin-4-yl)piperidin-1-yl)pentan-1-one] | < 250 |
| CCN(CC(=O)O)C(=O)CC[C@@H](C)[C@H]1CC[C@H]2[C@@H]3CC=C4C[C@@H](O)CC[C@]4(C)[C@H]3CC[C@]12C [Example 109, N-ethyl-N—((R)-4-((3S,8S,9S,10R,13R,14S,17R)-3-hydroxy-10,13-dimethyl-2,3,4,7,8,9,10,11,12,13,14,15,16,17-tetradecahydro-1H-cyclopenta[a]phenanthren-17-yl)pentanoyl)glycine] | > 10000 |
| COC(=O)N1CCN(C(=O)OC[C@@H](C)[C@H]2CC[C@H]3[C@@H]4CC=C5C[C@@H](O)CC[C@]5(C)[C@H]4CC[C@]23C)CC1 [Example 465, 1-(2S)-2-[(1R,3aS,3bS,7S,9aR,9bS,11aS)-7-hydroxy-9a,11a-dimethyl-1H,2H,3H,3aH,3bH,4H,6H,7H,8H,9H,9aH,9bH,10H,11H,11aH-cyclopenta[a]phenanthren-1-yl]propyl 4-methyl piperazine-1,4-dicarboxylate] | < 250 |
| C[C@H](CCC(=O)N(C)OCCCC(F)(F)F)[C@H]1CC[C@H]2[C@@H]3CC=C4C[C@@H](O)CC[C@]4(C)[C@H]3CC[C@]12C [Example 32, (R)-4-((3S,8S,9S,10R,13R,14S,17R)-3-hydroxy-10,13-dimethyl-2,3,4,7,8,9,10,11,12,13,14,15,16,17-tetradecahydro-1H-cyclopenta[a]phenanthren-17-yl)-N-methyl-N-(4,4,4-trifluorobutoxy)pentanamide] | 250 to 1000 |
| C[C@H](CCC(=O)N1CCOCC1)[C@H]1CC[C@H]2[C@@H]3CC=C4C[C@@H](O)CC[C@]4(C)[C@H]3CC[C@]12C [Example 7, (R)-4-((3S,8S,9S,10R,13R,14S,17R)-3-hydroxy-10,13-dimethyl-2,3,4,7,8,9,10,11,12,13,14,15,16,17-tetradecahydro-1H-cyclopenta[a]phenanthren-17-yl)-1-morpholinopentan-1-one] | < 250 |
| C[C@H](CCC(=O)N1CCC(C)(CN2CCOC(C)(C)C2=O)CC1)[C@H]1CC[C@H]2[C@@H]3CC=C4C[C@@H](O)CC[C@]4(C)[C@H]3CC[C@]12C [Example 523, 4-((1-((R)-4-((3S,8S,9S,10R,13R,14S,17R)-3-hydroxy-10,13-dimethyl-2,3,4,7,8,9,10,11,12,13,14,15,16,17-tetradecahydro-1H-cyclopenta[a]phenanthren-17-yl)pentanoyl)-4-methylpiperidin-4-yl)methyl)-2,2-dimethylmorpholin-3-one] | < 250 |
| C[C@H](Oc1ccccn1)[C@H]1CC[C@H]2[C@@H]3CC=C4C[C@@H](O)CC[C@]4(C)[C@H]3CC[C@]12C [Example 381, (3S,8S,9S,10R,13S,14S,17S)-10,13-dimethyl-17-((S)-1-(pyridin-2-yloxy)ethyl)-2,3,4,7,8,9,10,11,12,13,14,15,16,17-tetradecahydro-1H-cyclopenta[a]phenanthren-3-ol] | 1000 to 10000 |
| C[C@H](OC(=O)C(=O)N(C)C)[C@H]1CC[C@H]2[C@@H]3CC=C4C[C@@H](O)CC[C@]4(C)[C@H]3CC[C@]12C [Example 35, (S)-1-((3S,8S,9S,10R,13S,14S,17S)-3-hydroxy-10,13-dimethyl-2,3,4,7,8,9,10,11,12,13,14,15,16,17-tetradecahydro-1H-cyclopenta[a]phenanthren-17-yl)ethyl 2-(dimethylamino)-2-oxoacetate] | 250 to 1000 |
| CC[C@@H]1NC[C@@H]2CON(C(=O)CC[C@@H](C)[C@H]3CC[C@H]4[C@@H]5CC=C6C[C@@H](O)CC[C@]6(C)[C@H]5CC[C@]34C)[C@@H]21 [Example 48, (R)-1-((3aS,6S,6aS)-6-ethylhexahydro-1H-pyrrolo[3,4-c]isoxazol-1-yl)-4-((3S,8S,9S,10R,13R,14S,17R)-3-hydroxy-10,13-dimethyl-2,3,4,7,8,9,10,11,12,13,14,15,16,17-tetradecahydro-1H-cyclopenta[a]phenanthren-17-yl)pentan-1-one] | 250 to 1000 |
| C[C@H](CCC(=O)N1OCCC[C@@H]1C)[C@H]1CC[C@H]2[C@@H]3CC=C4C[C@@H](O)CC[C@]4(C)[C@H]3CC[C@]12C [Example 74, (R)-4-((3S,8S,9S,10R,13R,14S,17R)-3-hydroxy-10,13-dimethyl-2,3,4,7,8,9,10,11,12,13,14,15,16,17-tetradecahydro-1H-cyclopenta[a]phenanthren-17-yl)-1-((S)-3-methyl-1,2-oxazinan-2-yl)pentan-1-one] | < 250 |
| CCCCC1(O)CCN(C(=O)CC[C@@H](C)[C@H]2CC[C@H]3[C@@H]4CC=C5C[C@@H](O)CC[C@]5(C)[C@H]4CC[C@]23C)CC1 [Example 92, (R)-1-(4-butyl-4-hydroxypiperidin-1-yl)-4-((3S,8S,9S,10R,13R,14S,17R)-3-hydroxy-10,13-dimethyl-2,3,4,7,8,9,10,11,12,13,14,15,16,17-tetradecahydro-1H-cyclopenta[a]phenanthren-17-yl)pentan-1-one] | < 250 |
| C[C@H](CCC(=O)N1CCC(O)(CO)CC1)[C@H]1CC[C@H]2[C@@H]3CC=C4C[C@@H](O)CC[C@]4(C)[C@H]3CC[C@]12C [Example 150, (R)-4-((3S,8S,9S,10R,13R,14S,17R)-3-hydroxy-10,13-dimethyl-2,3,4,7,8,9,10,11,12,13,14,15,16,17-tetradecahydro-1H-cyclopenta[a]phenanthren-17-yl)-1-(4-hydroxy-4-(hydroxymethyl)piperidin-1-yl)pentan-1-one] | < 250 |
| C[C@H](CCC(=O)N1CCCC(c2ccncc2)C1)[C@H]1CC[C@H]2[C@@H]3CC=C4C[C@@H](O)CC[C@]4(C)[C@H]3CC[C@]12C (stereo partly drawn) [Example 346, (4R)-4-((3S,8S,9S,10R,13R,14S,17R)-3-hydroxy-10,13-dimethyl-2,3,4,7,8,9,10,11,12,13,14,15,16,17-tetradecahydro-1H-cyclopenta[a]phenanthren-17-yl)-1-(3-(pyridin-4-yl)piperidin-1-yl)pentan-1-one] | < 250 |
| C[C@H](CCC(=O)N1CCC[C@H](Oc2cnn(C)c2)C1)[C@H]1CC[C@H]2[C@@H]3CC=C4C[C@@H](O)CC[C@]4(C)[C@H]3CC[C@]12C [Example 517, (4R)-4-[(1R,3aS,3bS,7S,9aR,9bS,11aR)-7-hydroxy-9a,11a-dimethyl-1H,2H,3H,3aH,3bH,4H,6H,7H,8H,9H,9aH,9bH,10H,11H,11aH-cyclopenta[a]phenanthren-1-yl]-1-[(3S)-3-[(1-methyl-1H-pyrazol-4-yl)oxy]piperidin-1-yl]pentan-1-one] | < 250 |
